These results are taken from ChEMBL document CHEMBL1201862, “PubChem BioAssay data set” (2004).

Some test systems named below: DU-145; HOP-92; HT-29; Hs-578T; K562; KM12; MCF7; NCI-H226; NCI-H460; NCI-H522; NCI/ADR-RES; OVCAR-8; PC-3; RXF 393; SF-268; SF-539; SK-MEL-5; TK-10; UACC-62.
Common to all, as to assay: growth of human tumour cells (NCI), 48 h

The structures appear in SMILES notation.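 96-well plates; 48 h exposure; 5 concentrations. Endpoints by linear interpolation between flanking doses. Not reached: highest tested concentration assigned. Here, GI50 denotes the concentration required for 50% inhibition of growth.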 Calls of active or inactive are those of the source. No stated cut-off is given here; in the data, active = GI50 up to about 1.1 µM and inactive = higher.

Take `CC(C)NCC(O)c1cc(OCc2ccccc2)c(OCc2ccccc2)cc1NC(=O)CCC(=O)O` (stereo not given): the GI50 in the assay on DU-145 was 13 µM (inactive); in the assay on HOP-92, 4.78 µM (inactive); in the assay on HT-29, 3.75 µM (inactive); in the assay with Hs-578T, 11.6 µM (inactive); in the assay on K562, 1.92 µM (inactive); in the assay with KM12 it was 4.28 µM (inactive). Moreover, the GI50 is 5.69 µM (inactive) with MCF7; 15.7 µM (inactive) with NCI-H226; 1.85 µM (inactive) in the assay on NCI-H460; 3.52 µM (inactive) in the assay on NCI-H522; 12.9 µM (inactive) in the assay on NCI/ADR-RES; 7.66 µM (inactive) in the assay with OVCAR-8. Besides, the GI50 with PC-3 is 9.02 µM (inactive); in the assay on RXF 393, 5.36 µM (inactive); with SF-268 it was 10.1 µM (inactive); in the assay with SF-539, 16.4 µM (inactive); in the assay with SK-MEL-5 it was 2.1 µM (inactive); in the assay with TK-10, 7.53 µM (inactive). Besides, the GI50 with UACC-62 is 3.25 µM (inactive).
As to `COc1ccc(CNC2=Nc3ccncc3S(=O)(=O)N2c2ccccc2)cc1`, the GI50 in the assay with DU-145 was 45.7 µM (inactive); in the assay on HOP-92 it was 29.9 µM (inactive); with HT-29 it was 48.3 µM (inactive); in the assay with Hs-578T it was 33.8 µM (inactive); with K562 it was 29 µM (inactive); in the assay on KM12 it was 35 µM (inactive). Besides, the GI50 is 38.5 µM (inactive) with MCF7; 17 µM (inactive) in the assay on NCI-H226; 43.1 µM (inactive) with NCI-H460; 34.1 µM (inactive) in the assay on NCI-H522; 35.9 µM (inactive) with NCI/ADR-RES; 49.8 µM (inactive) with OVCAR-8. The GI50 was 53.6 µM (inactive) with PC-3; 50.7 µM (inactive) in the assay with RXF 393; 52.4 µM (inactive) in the assay with SF-268; 4.74 µM (inactive) in the assay with SF-539; 19 µM (inactive) with SK-MEL-5; 20.3 µM (inactive) in the assay on TK-10. Besides, the GI50 in the assay with UACC-62 is 40.2 µM (inactive).
Take `c1cc(NNc2cccc(-c3nnn[nH]3)c2)cc(-c2nnn[nH]2)c1`: the GI50 in the assay on DU-145, in the assay with HOP-92, with HT-29, in the assay with Hs-578T, in the assay with K562 and in the assay with KM12 was > 100 µM (inactive) in each case. The GI50 with MCF7, with NCI-H226, in the assay with NCI-H460, in the assay with NCI-H522, with NCI/ADR-RES and in the assay with OVCAR-8 was > 100 µM (inactive) throughout. Further, the GI50 with PC-3, in the assay with RXF 393, in the assay on SF-268, in the assay on SF-539, with SK-MEL-5 and with TK-10 was > 100 µM (inactive) each time. Moreover, the GI50 in the assay on UACC-62 was > 100 µM (inactive).
As for `COC(=O)C1CCC(=O)N1C(c1ccc(OC)cc1)c1cc(OC)c(OC)c(OC)c1` (stereo not given), the GI50 with DU-145 was 0.306 µM (active); in the assay with HOP-92, > 100 µM (inactive); with HT-29, 0.255 µM (active); in the assay with Hs-578T, 0.184 µM (active); in the assay on K562, 0.256 µM (active); with KM12, 0.146 µM (active). In addition, the GI50 is 0.307 µM (active) in the assay with MCF7; 0.324 µM (active) with NCI-H226; 0.33 µM (active) in the assay with NCI-H460; 0.047 µM (active) with NCI-H522; 0.258 µM (active) with NCI/ADR-RES; 0.348 µM (active) in the assay with OVCAR-8. The GI50 in the assay on PC-3 was 0.288 µM (active); with RXF 393 it was 0.0545 µM (active); in the assay on SF-268, 0.625 µM (active); in the assay with SF-539, 0.274 µM (active); with SK-MEL-5, 0.252 µM (active); with TK-10, > 37.8 µM (inactive). For the same molecule, in the assay on UACC-62, the GI50 is 0.163 µM (active).
As for `Nc1nc(Cl)cc(NCC2CC(O)(CO)C2)n1` (stereo not given), the GI50 in the assay with DU-145, with HOP-92, in the assay on HT-29, in the assay on Hs-578T, with K562 and in the assay on KM12 was > 100 µM (inactive) each time. Further, the GI50 in the assay with MCF7, in the assay on NCI-H226, with NCI-H460, in the assay with NCI-H522, in the assay with NCI/ADR-RES and with OVCAR-8 was > 100 µM (inactive) throughout. For the same molecule, the GI50 in the assay on PC-3, in the assay on RXF 393, with SF-268, with SF-539, in the assay with SK-MEL-5 and in the assay with TK-10 was > 100 µM (inactive) in each case. Besides, the GI50 in the assay on UACC-62 was > 100 µM (inactive).
On to `CC1=C(C(=O)NNC(=O)C[N+](C)(C)C)CC(C(=O)NNC(=O)C[N+](C)(C)C)=C(C)N1`, for which the GI50 with DU-145 is > 100 µM (inactive); with HOP-92 it was 71.8 µM (inactive); in the assay with HT-29 it was > 100 µM (inactive); with Hs-578T, > 100 µM (inactive); in the assay on K562, > 100 µM (inactive); in the assay with KM12, > 100 µM (inactive). The GI50 with MCF7, in the assay on NCI-H226, in the assay on NCI-H460, with NCI-H522, in the assay with NCI/ADR-RES and in the assay with OVCAR-8 was > 100 µM (inactive) throughout. The GI50 in the assay with PC-3, with RXF 393, in the assay on SF-268, with SF-539, in the assay on SK-MEL-5 and in the assay on TK-10 was > 100 µM (inactive) throughout. Moreover, the GI50 in the assay on UACC-62 was > 100 µM (inactive).
In the case of `O=[N+]([O-])O` [NITRIC ACID], the GI50 in the assay on DU-145, with HOP-92, in the assay with HT-29, in the assay with Hs-578T, in the assay on K562 and with KM12 was > 100 µM (inactive) in each case. Further, the GI50 in the assay with MCF7, in the assay on NCI-H226, in the assay on NCI-H460, in the assay with NCI-H522, in the assay with NCI/ADR-RES and in the assay on OVCAR-8 was > 100 µM (inactive) in each case. The GI50 in the assay with PC-3, with RXF 393, in the assay on SF-268, in the assay with SF-539, in the assay on SK-MEL-5 and in the assay on TK-10 was > 100 µM (inactive) each time. Besides, the GI50 in the assay on UACC-62 is > 100 µM (inactive).
On to `O=NN(Cc1ccc(Cl)cc1)C(C(=O)O)c1ccccc1` (stereo not given), for which the GI50 with DU-145, in the assay on HOP-92, in the assay with HT-29, with Hs-578T, in the assay with K562 and in the assay on KM12 was > 100 µM (inactive) throughout. Further, the GI50 in the assay on MCF7, in the assay on NCI-H226, in the assay with NCI-H460, in the assay on NCI-H522, in the assay with NCI/ADR-RES and in the assay on OVCAR-8 was > 100 µM (inactive) each time. Further, the GI50 with PC-3, in the assay with RXF 393, with SF-268, in the assay on SF-539, in the assay on SK-MEL-5 and in the assay on TK-10 was > 100 µM (inactive) in each case. Besides, in the assay with UACC-62, the GI50 was > 100 µM (inactive).
`CCOC(=O)C(=CNc1ccc(NC2=NCC(C)S2)cc1)C(=O)OCC` (stereo not given): the GI50 in the assay with DU-145 was 46.5 µM (inactive); in the assay on HOP-92 it was 30.4 µM (inactive); with HT-29, 23.6 µM (inactive); in the assay with Hs-578T, 25.5 µM (inactive); in the assay with K562, 0.382 µM (active); with KM12, 16.6 µM (inactive). Further, the GI50 in the assay on MCF7 is 30.3 µM (inactive); in the assay with NCI-H226 it was 42.4 µM (inactive); in the assay on NCI-H460, 31.6 µM (inactive); in the assay on NCI-H522 it was 2.66 µM (inactive); with NCI/ADR-RES, 23.1 µM (inactive); in the assay on OVCAR-8, 24.5 µM (inactive). The GI50 is 16.1 µM (inactive) in the assay with PC-3; 30.5 µM (inactive) in the assay with RXF 393; 33.1 µM (inactive) with SF-268; 47.8 µM (inactive) in the assay on SF-539; 16.5 µM (inactive) in the assay on SK-MEL-5; 46.1 µM (inactive) in the assay with TK-10. Also, in the assay with UACC-62, the GI50 was 11 µM (inactive).
For `Cn1c(=O)c2nc(SCc3ccccn3)[nH]c2n(C)c1=S`, the GI50 in the assay on DU-145 was > 100 µM (inactive); in the assay with HOP-92, 39.2 µM (inactive); with HT-29, > 100 µM (inactive); in the assay with Hs-578T, > 100 µM (inactive); in the assay on K562, > 100 µM (inactive); in the assay with KM12, > 100 µM (inactive). Moreover, the GI50 is > 100 µM (inactive) with MCF7; 63.7 µM (inactive) in the assay with NCI-H226; > 100 µM (inactive) with NCI-H460; > 100 µM (inactive) in the assay with NCI-H522; 90.4 µM (inactive) in the assay on NCI/ADR-RES; 56 µM (inactive) in the assay on OVCAR-8. Further, the GI50 in the assay with PC-3 is > 100 µM (inactive); in the assay on RXF 393, 32.1 µM (inactive); in the assay with SF-268 it was > 100 µM (inactive); with SF-539 it was 34.1 µM (inactive); in the assay on SK-MEL-5 it was > 100 µM (inactive); in the assay with TK-10, 86.7 µM (inactive). The GI50 with UACC-62 is 34 µM (inactive).
